Legend:
Type in all cases: cell-based, human
[1] = system: HMLE breast cancer cell line; experiment: HMLE viability, DIMSCAN assay; conditions: 3 days, 2-50 μM
Method: The effects of COH-SR compounds on breast cancer cells were investigated. Cells from 4T1 or HMLE breast cancer cell line were seeded in 96-well plates (about 2000 cells/well), allowed to proliferate for one day, treated with a COH-SR compound, doxorubicin, paclitaxel, cisplatin, or nothing (control) at a specific dose (3 wells for each treatment) and assayed for cell viability 3 days after using DIMSCAN assay. COH-SR3, COH-SR4, COH-SR9, doxorubicin, paclitaxel, and cisplatin were used at a dosage of 40 nM, 200 nM, 1 μM, 2 μM, 10 μM, or 50 μM for 4T1 breast cancer cell lines. COH-SR14 was used at a dosage of 40 nM, 200 nM, 1 μM, 2 μM, or 10 μM for 4T1 breast cancer cell lines. COH-SR3, COH-SR4, COH-SR9, doxorubicin, paclitaxel, and cisplatin were used at a dosage of 2 μM, 10 μM, or 50 μM for HMLE breast cancer cell lines. COH-SR14 was used at a dosage of 2 μM, or 10 μM for HMLE breast cancer cell lines.

[2] = system: HL-60 cells; experiment: HL-60 apoptosis markers (DNA ladder, DiOC6(3), caspases, cytochrome c, PARP); conditions: for DiOC6(3) fluorescence (mitochondrial depolarization): 4 hours; for cytochrome c release and PARP: 24 hours; for cytochrome c release and PARP / caspase 3/7 and caspase 9 activity: 0.5-3 μM; for caspase 3/7 and caspase 9 activity: 48 hours; for DNA fragmentation (DNA ladder): agarose gel
Method: DNA was stained with ethidium bromide after electrophoresis on 1.5% agarose gel and then visualized under UV light.
To test whether mitochondrial membrane disruption was involved in the apoptotic effects of COH-SR4 and COH-SR9, fluorescent cationic lipophilic dye DiOC6(3) was used and monitored using flow cytometry. HL-60 cells were exposed to various concentrations of COH-SR4 or COH-SR9 for 4 hours. After incubation, cells were rinsed and stained with the cationic fluorescent dye DiOC6(3) and then the overall fluorescence was analyzed by flow cytometry. […] Reduction of the fluorescence intensity of DiOC6(3) is indicative of the cells undergoing mitochondrial depolarization and loss of Δψmt. This effect, which has been commonly observed with other anticancer drugs irrespective of the cell type, generally defines an early but already irreversible stage of apoptosis.
HL-60 (2.5×10^4) cells were seeded into 96-well plates and incubated with a test compound (COH-SR4 or COH-SR9) at various concentrations (0.5˜3 μM) for 48 hours, then caspase-3/7 or caspase-9 activity was measured with the Caspase Glo kit (Promega), respectively. Data are expressed as mean±SE from 3 independent experiments (FIG. 18A), “*” in the figure means p<0.05 when compared to the untreated control.
Treatment of COH-SR compounds also triggered release of cytochrome c (14 kDa) into the cytoplasm and cleavage of full length PARP (116 kDa) into the 89 kDa fragment, all hallmarks of cells undergoing apoptosis (FIG. 18B). HL-60 cells were treated with COH-SR4 or COH-SR9 at various concentrations (0.5 μM˜3 μM) or nothing for 24 hours. Cytochrome c (14 kDa) and cleavage of full length PARP (116 kDa) into the 89 kDa fragment were analyzed in untreated HL-60 cells and HL-60 cells treated with COH-SR4 or COH-SR9 by Western blot. Numbers below each blot represent fold increase in protein expression relative to the control as quantified by densitometry and calculated with reference to β-actin as an internal standard.

[3] = system: HL-60 cells; experiment: HL-60 cell cycle, PI flow cytometry; conditions: for cells in the S phase: 3 μM, control 47%; for viable cells arrested in G0/G1 phase: 48-hour treatment
Method: HL-60 cells (1×10^6) were incubated with a test compound (COH-SR4 or COH-SR9) at various concentrations (0.5˜3 μM) for 48 hours, washed and harvested. The cells were then fixed and stained with propodium iodide (P1) and the DNA content was analyzed by flow cytometry. Results of each figure were from 3-4 independent experiments. The cell number in each cell cycle phase was calculated and expressed as overall percentage (FIG. 15A). The percentage of cells in G0/G1 were measured from 0-48-hour treatment with test compounds (FIG. 15B), data expressed as mean±SE.

[4] = system: cyclin D1, cyclin E2, CDK2, CDK4, p21WAF1/Cip1, p27Kip1; experiment: HL-60 cell cycle regulatory proteins, Western blot; conditions: 24 hours, 0.5-3 μM
Method: HL-60 cells were treated without or with COH-SR4 or COH-SR9 at a concentration of 0.5 μM, 1 μM, 2 μM, or 3 μM for 24 hours. Then the total cell lysates from the treated cells or untreated cells were resolved under electrophoresis and immunoblotted with antibodies against cyclin D1, cyclin E2, CDK2, CDK4, p21WAF1/Cip1, p27Kip1, and β-actin. β-actin served as an internal control. Densitometric quantitation was performed on each blot and the arbitrary numbers above each band represent the fold increase/decrease compared with untreated control. […] These kinase inhibitors are known to interfere with cell cycle progression to cause phase-specific cycle arrest by perturbing the phosphorylation process through direct interaction with their target proteins (cyclins or CDK).

[5] = system: HL-60 cells; experiment: Differentiation of HL-60 cells (Giemsa-Wright, NBT, CD11b/CD14); conditions: 48 hours; for surface expression of CD11b and CD14: 0.5-3 μM, flow cytometry; for morphologic changes (Giemsa-Wright stain), myeloid differentiation: 2-10 μM
Method: HL-60 cells were incubated with a test compound at various concentrations (2˜10 μM), DMSO, or without any test compound for 48 hours, and then examined for morphologic changes by Giemsa-Wright stain. The results were observed microscopically and shown in FIG. 13 at a magnification of ×400. […] Such results were similar to cells treated with DMSO or all-trans retinoic acid (ATRA), wherein DMSO or ATRA terminally differentiated HL-60 cells into myeloid cells (FIG. 13).
HL-60 cells (2.5×10^5) were treated with or without a test compound for 48 hours and then stained with NBT, wherein positively-stained cells appeared as purple black (FIG. 14A). NBT positive cells were counted and the overall percentage was calculated based on 200 total cells counted for each treatment. Three˜four independent experiments were carried out, and data are shown as mean±SE (FIG. 14B). This measurement of “oxidative burst” by the NBT assay is a well-known and extensively tested functional marker of HL-60 cell differentiation.
HL-60 cells (2.5×10^5) were incubated with a test compound (COH-SR4 or COH-SR9) at a concentration of 0.5 μM, 1 μM, 2 μM, or 3 μM, or without any COH-SR compound for 48 hours and then assessed for the surface expression of CD11b (FIG. 14C) and CD14 (FIG. 14D) by flow cytometry, respectively. Three-four independent experiments were carried out, and data are shown as mean±SE (FIGS. 14C and 14D).

SMILES | cytotoxic effects compared with doxorubicin, paclitaxel and cisplatin (FIG. 30) [1] | DiOC6(3) fluorescence (mitochondrial depolarization) [2] | cytochrome c release and PARP [2] | caspase 3/7 and caspase 9 activity [2] | DNA fragmentation (DNA ladder) [2] | cells in the S phase [3] | viable cells arrested in G0/G1 phase [3] | protein levels of CDK inhibitors p21WAF1/Cip1 and p27Kip1 [4] | protein levels of cyclin D1, cyclin E2, CDK2 and CDK4 [4] | superoxide production (NBT-positive cells) [5] | surface expression of CD11b and CD14 [5] | morphologic changes (Giemsa-Wright stain), myeloid differentiation [5]
O=C(Nc1cc(Cl)cc(Cl)c1)Nc1cc(Cl)cc(Cl)c1 [COH-SR4, 1,3-bis(3,5-dichlorophenyl) urea] | more potent cytotoxic effects | decreased overall DiOC6(3) fluorescent intensity | release of cytochrome c into the cytoplasm and PARP enzyme activation | higher caspase 3/7 and caspase 9 activity | dose-dependent DNA fragmentation | 10% | 85% | upregulated | dose-dependent reduction in the protein levels of cyclin D1, cyclin E2, CDK2 and CDK4 | Induced Superoxide Production | dose-dependent increase in expression of both CD11 b and CD14 | exhibited cytoplasmic vacuolation, reduced nucleus-to-cytoplasmic ratio, and absence of prominent nucleoli
Cc1c(Cl)cc(NC(=O)Nc2cc(Cl)cc(Cl)c2)c(O)c1Cl [COH-SR9, 1-(3,5-dichlorophenyl)-3-(3,5-dichloro-2-hydroxy-4-methyphenyl) urea] | more potent cytotoxic effects | decreased overall DiOC6(3) fluorescent intensity | release of cytochrome c into the cytoplasm and PARP enzyme activation | higher caspase 3/7 and caspase 9 activity | dose-dependent DNA fragmentation | 13% | 85% | upregulated | dose-dependent reduction in the protein levels of cyclin D1, cyclin E2, CDK2 and CDK4 | Induced Superoxide Production | dose-dependent increase in expression of both CD11 b and CD14 | exhibited cytoplasmic vacuolation, reduced nucleus-to-cytoplasmic ratio, and absence of prominent nucleoli

Source: patent publication US9808434B2, “Compound for treating cancer and diabetes” (CITY OF HOPE, priority 2011, dated 2017)
